The text below walks through data of ChEMBL document CHEMBL2346513, “Synthesis and evaluation of methylsulfonylnitrobenzamides (MSNBAs) as inhibitors of the thyroid hormone receptor-coactivator interaction” (Bioorg Med Chem Lett, 2013).

Broadly, the EC50 is the concentration that produces a half-maximal response. Broadly, the IC50 is the point on the concentration scale where inhibition reaches its midpoint. A higher IC50 goes with weaker potency.

For experiment [1], the target named is Thyroid hormone receptor (Homo sapiens) (UniProt P10827+P10828). The experiment is described as follows: Inhibition of thyroid hormone receptor-mediated PEPCK gene transcription in thyroid hormone treated human HepG2 cells by RT-PCR analysis. The experiment is classed as cell-based.
In a further experiment the test system is HepG2. Briefly: Cytotoxicity against human HepG2 cells assessed as ATP level after 72 hrs by CellTiter-Glo assay. Format: cell-based. Conditions: HepG2, 72 h. Background: In ATP-based viability assays light output follows the ATP content of the culture.
Another experiment addresses T1, Vitamin D3 receptor (Homo sapiens, UniProt P11473).
T1 sequence (P11473 whole entry): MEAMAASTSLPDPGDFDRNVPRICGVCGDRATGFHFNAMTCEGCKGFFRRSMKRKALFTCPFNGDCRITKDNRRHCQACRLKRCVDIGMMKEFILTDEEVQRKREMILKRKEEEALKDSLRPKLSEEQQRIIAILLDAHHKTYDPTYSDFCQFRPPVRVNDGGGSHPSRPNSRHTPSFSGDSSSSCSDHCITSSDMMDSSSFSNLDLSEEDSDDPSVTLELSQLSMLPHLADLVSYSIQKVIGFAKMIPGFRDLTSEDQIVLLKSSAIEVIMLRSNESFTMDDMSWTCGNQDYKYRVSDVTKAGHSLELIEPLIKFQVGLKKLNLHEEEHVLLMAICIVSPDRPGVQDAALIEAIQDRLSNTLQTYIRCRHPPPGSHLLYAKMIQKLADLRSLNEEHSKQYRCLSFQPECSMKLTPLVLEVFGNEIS
The experiment is described as follows: Inhibition of VDR (unknown origin) interaction to SRC2-3 peptide by fluorescence polarization assay.

Experiment [2] concerns the target T2, Thyroid hormone receptor alpha (Homo sapiens, UniProt P10827).
T2 sequence (P10827 whole entry): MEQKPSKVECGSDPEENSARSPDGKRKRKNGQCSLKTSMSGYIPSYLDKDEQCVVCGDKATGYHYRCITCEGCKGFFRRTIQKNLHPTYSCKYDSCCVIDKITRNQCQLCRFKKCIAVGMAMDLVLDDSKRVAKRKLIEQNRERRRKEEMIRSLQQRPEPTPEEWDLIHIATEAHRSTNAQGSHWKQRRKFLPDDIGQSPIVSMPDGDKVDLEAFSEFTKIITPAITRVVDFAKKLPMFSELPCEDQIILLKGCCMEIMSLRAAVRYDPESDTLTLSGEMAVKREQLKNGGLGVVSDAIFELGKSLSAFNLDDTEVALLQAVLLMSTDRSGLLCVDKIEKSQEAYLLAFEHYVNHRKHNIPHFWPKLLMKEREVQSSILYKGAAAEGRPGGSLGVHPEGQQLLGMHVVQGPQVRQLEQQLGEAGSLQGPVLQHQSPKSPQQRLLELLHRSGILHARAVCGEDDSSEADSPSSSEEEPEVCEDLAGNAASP
Briefly: Inhibition of TRalpha-LBD (unknown origin) interaction to texas red-labeled SRC2-2 peptide by fluorescence polarization assay.

Experiment [3] deals with T3, Thyroid hormone receptor beta (Homo sapiens, UniProt P10828).
T3 sequence (P10828 whole entry): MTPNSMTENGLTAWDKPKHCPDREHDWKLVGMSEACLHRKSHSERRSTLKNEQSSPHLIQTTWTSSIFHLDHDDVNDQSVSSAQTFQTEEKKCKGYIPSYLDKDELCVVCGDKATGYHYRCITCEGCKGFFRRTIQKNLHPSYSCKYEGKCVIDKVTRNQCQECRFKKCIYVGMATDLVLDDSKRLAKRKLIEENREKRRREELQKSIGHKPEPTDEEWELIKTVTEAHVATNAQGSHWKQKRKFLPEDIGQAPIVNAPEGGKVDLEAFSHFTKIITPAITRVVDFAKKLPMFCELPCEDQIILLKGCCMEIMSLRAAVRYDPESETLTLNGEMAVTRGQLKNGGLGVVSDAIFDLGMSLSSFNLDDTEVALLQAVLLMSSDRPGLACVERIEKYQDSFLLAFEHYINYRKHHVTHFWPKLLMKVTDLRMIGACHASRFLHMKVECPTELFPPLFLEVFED
Briefly: Inhibition of TRbeta-LBD (unknown origin) interaction to texas red-labeled SRC2-2 peptide by fluorescence polarization assay. (Fluorescence polarisation rises when a labelled molecule tumbles more slowly, as on binding a larger partner.)

For the compound `CS(=O)(=O)c1ccc(C(=O)NCC(=O)N(Cc2ccccc2)Cc2ccccc2)cc1[N+](=O)[O-]`, the inhibition result in experiment [1] was “Dose-dependent effect”. For the same compound, the EC50 with HepG2 amounted to 11.9 µM. Further, the IC50 at Vitamin D3 receptor is over 60 µM; in experiment [2] it was 1.7 µM; in experiment [3] it was 3.6 µM.
As for `CS(=O)(=O)c1ccc(C(=O)N2CCC(C(=O)N3CCc4ccccc43)CC2)cc1[N+](=O)[O-]`, the EC50 with HepG2 is over 27 µM. Besides, the 50% inhibitory concentration (IC50) (on Vitamin D3 receptor; in experiment [2]; in experiment [3]) was over 60 µM in each case.
`CC1CCN(C(=O)CN(C)C(=O)c2ccc(S(C)(=O)=O)c([N+](=O)[O-])c2)CC1`: the EC50 in the experiment with HepG2 was over 27 µM. Moreover, the IC50 (at Vitamin D3 receptor; in experiment [2]; in experiment [3]) was over 60 µM in each case.
